Broadly, the Emax is the maximal effect, on the per cent scale that the assay sets. For orientation: pEC50 means the EC50 on a negative log10 scale, so that one unit is a factor of ten. Read a low pEC50 as a large EC50. The term pIC50 denotes the negative decadic logarithm of the IC50, by convention in mol/L.

One series deals with rats. Conditions: 10 mg/kg, s.c. or i.p.; absence of stimulant-like effects; cited from earlier work.
For another series, the target named is T1, 5-HT2C receptor (Homo sapiens, UniProt P28335).
T1 sequence (P28335 33-458): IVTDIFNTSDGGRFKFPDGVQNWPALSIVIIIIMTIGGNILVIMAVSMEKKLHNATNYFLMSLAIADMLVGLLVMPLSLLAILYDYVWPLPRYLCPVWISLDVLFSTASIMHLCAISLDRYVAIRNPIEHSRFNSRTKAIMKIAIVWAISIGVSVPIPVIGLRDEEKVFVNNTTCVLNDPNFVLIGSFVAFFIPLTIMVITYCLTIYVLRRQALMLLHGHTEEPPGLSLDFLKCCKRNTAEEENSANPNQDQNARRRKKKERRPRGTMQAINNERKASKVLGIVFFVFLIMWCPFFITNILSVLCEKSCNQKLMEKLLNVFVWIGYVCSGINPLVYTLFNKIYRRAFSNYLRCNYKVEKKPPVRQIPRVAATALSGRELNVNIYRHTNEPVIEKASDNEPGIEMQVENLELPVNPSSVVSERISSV
Kind of series: Calcium flux assay. The format is cell-based. Conditions: read-out: Emax relative to 5-HT, calcium flux.

A further series concerns the target 5-HT1F receptor (Homo sapiens, UniProt P30939). Description: 5-HTome G protein activation BRET assay. A general note: In BRET a luciferase serves as donor, and the signal depends on an acceptor being close.
The next series has as its target 5-HT2B (Homo sapiens, UniProt P41595). Description: Calcium flux assay. It is filed as cell-based. The following applies: read-out: Emax relative to 5-HT, calcium flux. On the technique in general: Calcium assays in cells follow changes in intracellular calcium, usually with a dye or a luminescent sensor.
For a further series, the system named is C57BL/6J mice. Description: Open field locomotion in mice. It is filed as in vivo, mouse.
The subject of series [1] is auxilin knockout (KO) mice. Kind of series: Open field test in auxilin KO mouse model of Parkinson's Disease. The format is in vivo. The following applies: Aux-KO mice; 10 mg/kg intraperitoneal; confounded by learning effects.
In another series the target is T2, Phosphodiesterase PDE3A (Homo sapiens, UniProt Q14432).
T2 construct: Eurofins-Panlabs (contract screen) 152300
Kind of series: SafetyScreen44 152300. Conditions: 10 μM; FAM-cAMP; recombinant. The format is biochemical. On the procedure: (§1) A broad screen of 44 molecular targets (SafetyScreen44, Eurofins-Panlabs) for Ariadne were performed, which includes G protein-coupled receptors, steroid nuclear receptors, ion channels, neurotransmitter transporters, and metabolic and signaling enzymes. Only two molecular targets, 5-HT2A and 5-HT2B receptors, emerged above the positive hit threshold, defined as 50% displacement of standard radioligands by 10 uM concentration of Ariadne (FIG. 1b, and Table 1).
(§2) For species, “H”=human, “R”=rat. Test compound screened at all targets at concentration of 10 μM.

The next series deals with cats. The following applies: in comparison to (R)-DOM; cited from earlier work.
The target in a further series is T3, Monoamine Oxidase MAO-A (Homo sapiens, UniProt P21397).
T3 construct: Eurofins-Panlabs (contract screen) 140010
Kind of series: SafetyScreen44 140010. The following applies: 10 μM; Kynuramine; recombinant. It is filed as biochemical. The procedure:
as §1, §2

The next series deals with T4, Adrenergic β2 (Homo sapiens, UniProt P07550).
T4 construct: Eurofins-Panlabs (contract screen) 204110
Description: SafetyScreen44 204110. It is filed as binding. Conditions: 10 μM; [3H]CGP-12177; recombinant. On the procedure:
as §1, §2

The target in another series is T5, Muscarinic M3 (Homo sapiens, UniProt P20309).
T5 construct: purchased Eurofins-Panlabs (contract screen SafetyScreen44) assay ID 252810
T5 sequence (P20309 whole entry): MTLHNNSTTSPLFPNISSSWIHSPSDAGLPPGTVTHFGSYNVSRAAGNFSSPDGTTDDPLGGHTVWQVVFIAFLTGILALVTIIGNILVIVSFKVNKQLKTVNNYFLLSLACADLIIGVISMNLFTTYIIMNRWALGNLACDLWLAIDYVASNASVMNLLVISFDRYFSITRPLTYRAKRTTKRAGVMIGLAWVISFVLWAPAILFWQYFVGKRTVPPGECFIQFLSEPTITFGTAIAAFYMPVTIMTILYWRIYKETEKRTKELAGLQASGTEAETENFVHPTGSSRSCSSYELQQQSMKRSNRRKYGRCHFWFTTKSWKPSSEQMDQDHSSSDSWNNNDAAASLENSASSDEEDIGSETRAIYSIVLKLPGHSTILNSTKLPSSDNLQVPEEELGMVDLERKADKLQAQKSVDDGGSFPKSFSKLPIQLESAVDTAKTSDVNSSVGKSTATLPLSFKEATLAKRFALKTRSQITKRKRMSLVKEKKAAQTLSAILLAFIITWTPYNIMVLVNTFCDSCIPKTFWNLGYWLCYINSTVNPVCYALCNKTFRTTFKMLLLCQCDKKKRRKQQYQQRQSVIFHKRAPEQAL
Kind of series: SafetyScreen44 252810. The format is binding. The following applies: 10 μM; [3H]N-Methylscopolamine; recombinant. The procedure: as §1, §2

The target of the next series is hDAT (Homo sapiens, UniProt Q01959). Description: DAT fluorescence uptake inhibition. It is filed as cell-based.
Another series concerns humans. Conditions: in vivo; cited from earlier work.
A further series has as its target T6, Cannabinoid CB1 (Homo sapiens, UniProt P21554).
T6 construct: Eurofins-Panlabs (contract screen) 217050
Kind of series: SafetyScreen44 217050. It is filed as binding. Conditions: 10 μM; [3H]SR141716A; recombinant. On the procedure: as §1, §2

In another series the target is T7, Dopamine D1 (Homo sapiens, UniProt P21728).
T7 construct: Eurofins-Panlabs (contract screen) 219500
T7 sequence (P21728 whole entry): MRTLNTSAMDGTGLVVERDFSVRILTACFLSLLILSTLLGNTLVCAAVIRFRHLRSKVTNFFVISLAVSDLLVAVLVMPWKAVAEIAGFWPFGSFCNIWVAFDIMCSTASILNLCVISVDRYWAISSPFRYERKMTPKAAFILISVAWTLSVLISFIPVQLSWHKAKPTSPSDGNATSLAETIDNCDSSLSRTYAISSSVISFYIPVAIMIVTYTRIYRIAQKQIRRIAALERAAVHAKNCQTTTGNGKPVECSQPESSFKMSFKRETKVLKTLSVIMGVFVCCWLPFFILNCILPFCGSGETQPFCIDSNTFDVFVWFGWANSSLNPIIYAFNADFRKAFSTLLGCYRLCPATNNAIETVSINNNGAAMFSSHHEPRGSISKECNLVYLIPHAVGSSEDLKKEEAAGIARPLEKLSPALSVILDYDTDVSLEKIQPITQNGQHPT
Description: SafetyScreen44 219500. It is filed as binding. The following applies: 10 μM; [3H]SCH-23390; recombinant. The procedure:
as §1, §2

The target of a further series is T8, Adrenergic β1 (Homo sapiens, UniProt P08588).
T8 construct: Eurofins-Panlabs (contract screen) 204010
T8 sequence (P08588 whole entry): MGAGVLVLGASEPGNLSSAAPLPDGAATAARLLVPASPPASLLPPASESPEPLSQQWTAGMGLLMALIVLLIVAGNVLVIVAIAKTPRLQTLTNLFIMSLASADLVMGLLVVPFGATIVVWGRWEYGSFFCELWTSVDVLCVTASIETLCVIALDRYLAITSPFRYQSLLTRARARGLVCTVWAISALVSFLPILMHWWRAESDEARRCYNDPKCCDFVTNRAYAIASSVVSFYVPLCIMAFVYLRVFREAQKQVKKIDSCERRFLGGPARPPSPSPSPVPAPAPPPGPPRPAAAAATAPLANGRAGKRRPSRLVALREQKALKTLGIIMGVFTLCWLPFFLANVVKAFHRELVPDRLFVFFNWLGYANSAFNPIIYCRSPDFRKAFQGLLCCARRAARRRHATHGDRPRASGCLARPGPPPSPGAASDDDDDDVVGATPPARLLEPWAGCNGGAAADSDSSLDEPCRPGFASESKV
Description: SafetyScreen44 204010. The format is binding. The following applies: 10 μM; [125I]Cyanopindolol; recombinant. On the procedure:
as §1, §2

The subject of a further series is Sodium Channel, Site 2. Description: SafetyScreen44 279510. It is filed as binding, human. The following applies: 10 μM; [3H]Batrachotoxinin; recombinant. On the procedure:
as §1, §2

The target of the next series is T9, Opiate kappa (OP2, KOP) (Homo sapiens, UniProt P41145).
T9 construct: purchased Eurofins-Panlabs (contract screen SafetyScreen44) assay ID 260210
T9 sequence (P41145 whole entry): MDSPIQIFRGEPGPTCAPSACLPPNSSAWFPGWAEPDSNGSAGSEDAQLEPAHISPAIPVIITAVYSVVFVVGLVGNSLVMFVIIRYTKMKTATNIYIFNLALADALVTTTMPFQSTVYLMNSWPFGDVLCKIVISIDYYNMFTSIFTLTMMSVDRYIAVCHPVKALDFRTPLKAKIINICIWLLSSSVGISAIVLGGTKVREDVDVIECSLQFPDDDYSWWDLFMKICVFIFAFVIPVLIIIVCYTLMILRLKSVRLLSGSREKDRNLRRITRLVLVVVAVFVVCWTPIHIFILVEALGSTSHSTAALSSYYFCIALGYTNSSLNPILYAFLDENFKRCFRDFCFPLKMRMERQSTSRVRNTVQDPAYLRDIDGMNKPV
Kind of series: SafetyScreen44 260210. The format is binding. Conditions: 10 μM; [3H]Diprenorphine; recombinant. On the procedure: as §1, §2

A further series has as its system Potassium Channel [KA]. Kind of series: SafetyScreen44 265510. Conditions: 10 μM; [125I]alpha-Dendrotoxin; cerebral cortex. The format is binding, rat. On the procedure:
as §1, §2

The target of the next series is T10, Endothelin ETA (Homo sapiens, UniProt P25101).
T10 construct: Eurofins-Panlabs (contract screen) 224010
Kind of series: SafetyScreen44 224010. The following applies: 10 μM; [125I]Endothelin-1; recombinant. It is filed as binding. On the procedure: as §1, §2

Series [2] has as its target T11, Potassium Channel hERG, [3H]Dofetilide (Homo sapiens, UniProt Q12809).
T11 construct: purchased Eurofins-Panlabs (contract screen SafetyScreen44) assay ID 265910
Kind of series: SafetyScreen44 265910. The following applies: 10 μM, recombinant. The format is binding. The procedure:
as §1, §2

The target of the next series is T12, Glucocorticoid (Homo sapiens, UniProt P04150).
T12 construct: Eurofins-Panlabs (contract screen) 232030
T12 sequence (P04150 whole entry): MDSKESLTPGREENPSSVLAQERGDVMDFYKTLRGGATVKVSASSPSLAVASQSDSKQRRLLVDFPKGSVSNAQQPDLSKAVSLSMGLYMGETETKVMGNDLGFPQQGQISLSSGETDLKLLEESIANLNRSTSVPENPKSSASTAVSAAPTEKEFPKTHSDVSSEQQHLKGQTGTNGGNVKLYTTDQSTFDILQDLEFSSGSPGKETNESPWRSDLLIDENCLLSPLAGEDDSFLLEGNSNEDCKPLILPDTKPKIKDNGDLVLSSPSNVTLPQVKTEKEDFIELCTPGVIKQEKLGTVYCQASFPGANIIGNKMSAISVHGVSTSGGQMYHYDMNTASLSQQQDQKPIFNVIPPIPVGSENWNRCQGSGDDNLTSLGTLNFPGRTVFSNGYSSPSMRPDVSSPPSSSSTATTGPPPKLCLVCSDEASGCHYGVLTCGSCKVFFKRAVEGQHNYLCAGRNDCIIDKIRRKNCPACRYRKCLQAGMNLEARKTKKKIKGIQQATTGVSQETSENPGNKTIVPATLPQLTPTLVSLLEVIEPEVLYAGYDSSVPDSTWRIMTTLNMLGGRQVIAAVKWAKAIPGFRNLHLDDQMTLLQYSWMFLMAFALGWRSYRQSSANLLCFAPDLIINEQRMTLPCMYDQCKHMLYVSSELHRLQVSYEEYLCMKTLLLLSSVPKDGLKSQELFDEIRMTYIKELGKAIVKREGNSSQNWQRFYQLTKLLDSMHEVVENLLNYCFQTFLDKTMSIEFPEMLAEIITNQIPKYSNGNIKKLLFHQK
Description: SafetyScreen44 232030. The format is binding. The following applies: 10 μM; [3H]Dexamethasone; recombinant. On the procedure: as §1, §2

The target of a further series is T13, Vasopressin V1A (Homo sapiens, UniProt P37288).
T13 construct: purchased Eurofins-Panlabs (contract screen SafetyScreen44) assay ID 287530
Kind of series: SafetyScreen44 287530. The format is binding. The following applies: 10 μM; [125I]Phenylacetyl Tyr(Me)PheGlnAsnArgProArgTyr; recombinant. On the procedure: as §1, §2

The target of series [3] is T14, Serotonin (5-Hydroxytryptamine) 5-HT1A (Homo sapiens, UniProt P08908).
T14 construct: purchased Eurofins-Panlabs (contract screen SafetyScreen44) assay ID 271110
Description: SafetyScreen44 271110. The format is binding. The following applies: 10 μM; [3H]8-OH-DPAT; recombinant. On the procedure:
as §1, §2

pEC50, pIC50: −log10 of the molar value.

Sequence of 5-HT1F receptor (P30939 whole entry): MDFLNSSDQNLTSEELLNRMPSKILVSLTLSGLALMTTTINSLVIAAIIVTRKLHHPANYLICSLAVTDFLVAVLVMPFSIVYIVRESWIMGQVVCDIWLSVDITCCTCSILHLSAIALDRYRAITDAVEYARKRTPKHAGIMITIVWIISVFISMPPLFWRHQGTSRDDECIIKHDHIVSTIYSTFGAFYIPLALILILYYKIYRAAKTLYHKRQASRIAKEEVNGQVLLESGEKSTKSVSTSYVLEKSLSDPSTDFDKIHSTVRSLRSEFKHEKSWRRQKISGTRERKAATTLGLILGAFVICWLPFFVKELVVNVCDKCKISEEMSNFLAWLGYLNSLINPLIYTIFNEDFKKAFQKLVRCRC
T6 sequence (P21554 whole entry): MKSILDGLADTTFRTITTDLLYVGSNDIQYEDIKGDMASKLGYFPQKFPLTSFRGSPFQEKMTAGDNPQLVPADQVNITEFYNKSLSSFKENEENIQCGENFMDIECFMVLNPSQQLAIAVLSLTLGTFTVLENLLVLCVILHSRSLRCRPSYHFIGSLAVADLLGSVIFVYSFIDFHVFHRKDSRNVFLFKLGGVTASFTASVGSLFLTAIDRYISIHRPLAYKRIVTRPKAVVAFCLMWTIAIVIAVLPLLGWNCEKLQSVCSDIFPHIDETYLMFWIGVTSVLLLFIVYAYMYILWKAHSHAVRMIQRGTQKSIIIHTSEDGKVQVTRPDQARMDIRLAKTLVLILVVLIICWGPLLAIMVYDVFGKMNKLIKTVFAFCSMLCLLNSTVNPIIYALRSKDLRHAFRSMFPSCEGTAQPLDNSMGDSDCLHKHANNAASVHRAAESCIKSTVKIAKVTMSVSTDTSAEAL
T11 sequence (Q12809 whole entry): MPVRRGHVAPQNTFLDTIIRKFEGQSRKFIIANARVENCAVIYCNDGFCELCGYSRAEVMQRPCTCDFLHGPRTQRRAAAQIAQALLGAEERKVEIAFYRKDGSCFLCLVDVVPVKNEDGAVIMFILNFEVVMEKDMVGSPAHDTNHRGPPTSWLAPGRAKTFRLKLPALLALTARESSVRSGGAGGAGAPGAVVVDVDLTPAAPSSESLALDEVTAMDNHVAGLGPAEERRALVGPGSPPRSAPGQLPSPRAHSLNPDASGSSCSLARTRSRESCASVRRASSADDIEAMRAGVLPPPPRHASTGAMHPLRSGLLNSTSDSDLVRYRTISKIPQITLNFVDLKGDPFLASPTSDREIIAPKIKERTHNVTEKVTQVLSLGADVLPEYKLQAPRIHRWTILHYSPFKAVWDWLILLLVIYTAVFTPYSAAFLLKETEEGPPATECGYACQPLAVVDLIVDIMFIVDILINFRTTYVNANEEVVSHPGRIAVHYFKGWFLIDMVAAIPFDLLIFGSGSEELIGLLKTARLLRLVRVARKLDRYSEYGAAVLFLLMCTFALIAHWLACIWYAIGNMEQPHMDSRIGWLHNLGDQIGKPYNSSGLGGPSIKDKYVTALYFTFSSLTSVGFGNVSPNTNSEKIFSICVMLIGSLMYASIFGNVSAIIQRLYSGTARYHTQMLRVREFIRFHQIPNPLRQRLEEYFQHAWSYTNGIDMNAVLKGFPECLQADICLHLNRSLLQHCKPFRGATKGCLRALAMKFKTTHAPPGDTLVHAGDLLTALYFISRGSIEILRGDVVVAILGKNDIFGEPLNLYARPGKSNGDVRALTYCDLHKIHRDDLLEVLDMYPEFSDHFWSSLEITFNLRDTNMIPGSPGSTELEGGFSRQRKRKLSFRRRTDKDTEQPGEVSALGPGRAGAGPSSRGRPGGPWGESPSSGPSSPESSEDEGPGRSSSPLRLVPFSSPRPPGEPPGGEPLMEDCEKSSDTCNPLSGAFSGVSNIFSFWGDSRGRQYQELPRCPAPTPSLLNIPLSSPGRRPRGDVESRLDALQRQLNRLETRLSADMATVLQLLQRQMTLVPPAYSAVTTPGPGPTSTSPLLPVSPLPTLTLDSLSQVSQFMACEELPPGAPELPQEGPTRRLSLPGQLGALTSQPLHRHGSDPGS
Description for 5-HT1F receptor: All BRET assays were conducted using BRET2 in HEK293T cells (ATCC CRL-11268; mycoplasma-free), which were subcultured in high-glucose DMEM (VWR) supplemented with 10% FBS (Life Technologies).
Constructs in G protein-dissociation BRET assays were derived from the codon-optimized Tango pcDNA3.1 library (Addgene) with V2tail/TEV/tTA encoding regions deleted to yield “de-Tango” constructs. […] All Gα-Rluc8, Beta, and GFP2-γ constructs were derived from the TRUPATH pcDNA5/FRT/TO library (Addgene). […]
On the day of the assay, plates were decanted and 20 uL of drug buffer per well (1×HBSS, 20 mM HEPES, pH 7.4) was added using a Multidrop (ThermoFisher Scientific), and plates were allowed to equilibrate at 37° C. in a humidified incubator before receiving drug stimulation. […] Before reading, addition of coelenterazine 400a (5 uM final concentration; Nanolight Technology) was performed by the [sequence]. Immediately after, plates were read at 400 nm Rluc and fluorescent GFP2 emission at 510 nm for BRET2 at 0.8 second per well using a PheraStarFSX (BMB Lab Tech).
The BRET ratios of 510/400 luminescence were calculated per well and were plotted as a function of drug concentration using Graphpad Prism 5 or 9 (Graphpad Software Inc., San Diego, CA). […]
Description for 5-HT2B: (§3) Therefore, an orthogonal assay measuring calcium flux was also performed for the 5-HT2 receptors (Klein et al., 2020).
Description for 5-HT2C receptor: as §3

On to `CC[C@@H](N)Cc1cc(OC)c(C)cc1OC` [(R)-Ariadne], for which the avoidance behavior entry with rats was “improved avoidance behavior”. Besides, the figures for the Emax on 5-HT2C receptor, on 5-HT1F receptor and at 5-HT2B were 60%, above 70% and 64%, respectively. Further, the pEC50 on 5-HT1F receptor is around 5.30. Besides, the “general locomotion in novel environment” value in the series on C57BL/6J mice (10 mg/kg, s.c. (peak HTR dose)) is “minor sedative effect”; in the series on C57BL/6J mice (30 mg/kg) it was “marked sedation”. The “time in the center of the arena” value with C57BL/6J mice (open field) is on record as “trend for spending less time in the center”. Also, the “overall locomotory deficits in the open field” value in [1] is on record as “partially rescued”.
Take `CCC(N)Cc1cc(OC)c(C)cc1OC` (racemic) [Compound 32, 1-(2,5-dimethoxy-4-methylphenyl)butan-2-amine]: the “% Response” value is listed as −4% on Phosphodiesterase PDE3A; −3% at Monoamine Oxidase MAO-A; 22% at Adrenergic β2; −11% on Muscarinic M3; 1% on Cannabinoid CB1; 7% on Dopamine D1. Also, the “% Response” value on Adrenergic β1 was 17%; with Sodium Channel, Site 2, 47%; at Opiate kappa (OP2, KOP) it was 3%; with Potassium Channel [KA], −6%; on Endothelin ETA, −6%; in series [2], 18%. Also, the “% Response” value on Glucocorticoid is −5%; at Vasopressin V1A, −5%; in series [3], 36%. For the same compound, the “combined score of DOM-like behavioral features” value with cats is given as “low combined score”. Besides, the pIC50 against hDAT was below 4.30. The “hallucinogenic effects in humans” value in the series on humans is given as “lack the hallucinogenic effects”.

The values above are taken from patent US20260021061A1, “ARIADNE AND ANALOGS FOR THE TREATMENT OF NEUROLOGICAL AND NEUROMUSCLAR DISORDERS” (priority 2022, published 2026).
